# Source: US6875578B2, “System for cell-based screening” (priority 1997, dated 2005)
# “Also recorded” adds a separate entry of the source.
# Legend:
# MCF-7 cells [1] = test: Apoptosis actin reorganization (f-actin content), MCF-7 cells; type: cell-based; conditions: 30 hours
# Protocol: (§1) Cells were plated in 96-well plates at densities of 3×10^3 to 1×10^4 cells/well. The following day apoptotic inducers were added at indicated concentrations. Cells were incubated for the indicated time periods (usually 16-30 hours). The next day the medium was removed and cells were stained with 5 μg/ml Hoechst (Molecular Probes, Inc.) in fresh medium and incubated for 30 minutes at […]. Cells were washed in HBSS and fixed with 3.7% formaldehyde in HBSS at room temperature. Plates were washed with HBSS and permeabilized with 0.5% v/v Triton X-100 in HBSS at room temperature. Plates were washed in HBSS and stained with 100 μl of 1 U/ml of Alexa 488 Phalloidin stock (100 μl/well, Molecular Probes, Inc.). Cells were washed 2×with HBSS at RT and the plate was sealed.
# (§2) Quantitation of f-actin content was accomplished by measuring the intensity of phalloidin staining around the nucleus. This was determined to be a reasonable approximation of a full cytoplasmic average of the intensity. The mask used to approximate this cytoplasmic measure was derived from the nuclear mask defined by the Hoechst stain. Derivation was accomplished by combinations of erosions and dilations.
# BHK cells = test: Apoptosis actin reorganization (f-actin content), BHK cells; type: cell-based; conditions: 30 hours
# Protocol: as §1, §2
# caspase-3 = test: Caspase-3 biosensor apoptosis assay, BHK cells; type: cell-based; conditions: BHK cells transfected with the caspase 3 biosensor
# Protocol: For DNA transfection, BHK cells and MCF-7 cells were cultured to 50-70% confluence in 6 well plates containing 3 ml of minimal Eagle's medium (MEM) with 10% fetal calf serum, 1 mM L-glutamine, 50 μg/ml streptomycin, 50 μg/ml penicillin, 0.1 mM non-essential amino acids, 1 mM sodium pyruvate and 10 μg/ml of bovine insulin (for MCF-7 cell only) at 37° C. in a 5% CO2 incubator for about 36 hours. The cells were washed with serum free MEM media and incubated for 5 hours with 1 ml of transfection mixture containing 1 μg of the appropriate plasmid and 4 μg of lipofectimine (BRL) in the serum free MEM media. Subsequently, the transfection medium was removed and replaced with 3 ml of normal culture media. The transfected cells were maintained in growth medium for at least 16 hours before performing selection of the stable cells based on standard molecular biology methods (Ausubel. et al 1995).
# For apoptosis assays, the cells (BHK, MCF-7) stably transfected with the appropriate protease biosensor expression vector were plated on tissue culture treated 96-well plates at 50-60% confluence and cultured overnight at 37° C., 5% CO2. […]
# The biosensor response is measured by quantitating the effective cytoplasm-to-nuclear translocation of the signal (see above). […]
# MCF-7 cells [2] = test: Apoptosis mitochondrial mass/potential, MCF-7 cells; type: cell-based; conditions: 30 hours
# Protocol: Cells were plated into 96-well plates at densities of 3×10^3 to 1×10^4 cells/well. The following day apoptotic inducers were added at the indicated concentrations and cells were incubated for the indicated time periods (usually 16-30 hours). Cells were stained with 5 μg/ml Hoechst (Molecular Probes, Inc.) and 750 nM MITOTRACKER™ Red (CMXRos, Molecular Probes, Inc.) in fresh medium and incubated for 30 minutes at 37° C. Cells were washed in HBSS and fixed with 3.7% formaldehyde in HBSS at room temperature. Plates were washed with HBSS and permeabilized with 0.5% v/v TRITON™ X-100 in HBSS at room temperature. Cells were washed 2× with HBSS at room temperature and the plate was sealed. For dual labeling of mitochondria, cells were treated with 200 nM MITOTRACKER™ Green and 200 nM MITOTRACKER™ Red for 0.5 hours before fixation.
# The mitochondrial membrane potential is measured by labeling mitochondria with both MITOTRACKER™ Green FM and MITOTRACKER™ Red (Molecular Probes, mc). MITOTRACKER™ Red labeling is proportional to both mass and membrane potential. MITOTRACKER™ Green FM labeling is proportional to mass. The ratio of MITOTRACKER™ Red signal to the MITOTRACKER™ Green FM signal provides a measure of mitochondrial membrane potential (Poot and Pierce, 1999). This ratio normalizes the […]. […]
# L929 cells = test: Apoptosis actin reorganization (f-actin content), L929 cells; type: cell-based, mouse; conditions: 30 hours
# Protocol: as §1, §2
# MCF-7 cells [3] = test: Apoptosis nuclear morphology, MCF-7 cells; type: cell-based; conditions: 30 hours
# Protocol: Cells were plated into 96-well plates at densities of 3×10^3 to 1×10^4 cells/well. The following day apoptotic inducers were added at indicated concentrations and cells were incubated for indicated time periods (usually 16-30 hours). The next day medium was removed and cells were stained with 5 μg/ml Hoechst (Molecular Probes, Inc.) in fresh medium and incubated for 30 minutes at 37° C. Cells were washed in Hank's Balanced Salt Solution (HBSS) and fixed with 3.7% formaldehyde in HBSS at room temperature. Cells were washed 2×with HBSS at room temperature and the plate was sealed.
# Quantitation of changes in nuclear morphology upon induction of apoptosis was accomplished by (1) measuring the effective size of the nuclear region; and (2) measuring the degree of convolution of the perimeter.
smiles,measurement,setting,value
CC(=O)O[C@H]1C(=O)[C@@]2(C)[C@H]([C@H](OC(=O)c3ccccc3)[C@]3(O)C[C@H](OC(=O)[C@H](O)[C@@H](NC(=O)c4ccccc4)c4ccccc4)C(C)=C1C3(C)C)[C@]1(OC(C)=O)CO[C@@H]1C[C@@H]2O [paclitaxel],change in peri-nuclear f-actin content,MCF-7 cells [1],highly variable; also recorded: highly variable and not significant
same,change in peri-nuclear f-actin content,BHK cells,results that are more variable
same,change in peri-nuclear f-actin content,BHK cells; listed as Paclitaxel,highly variable
same,caspase activation reported by the biosensor,caspase-3,stimulated
same,mitochondrial changes (mass / membrane potential),MCF-7 cells [2],consistent increases in mitochondrial mass; also recorded: an increase in mitochondrial mass
same,change in peri-nuclear f-actin content,L929 cells,dose-dependent increases in f-actin content
same,change in peri-nuclear f-actin content,L929 cells; listed as Paclitaxel,graded increases in f-actin
same,change in nuclear morphology,MCF-7 cells [3],nuclear fragmentation
